The source of these data is patent US7049331B2, “1,2,4-thiadiazole derivatives as melanocortin receptor modulators” (Ortho-McNeil Pharmaceutical, Inc., priority 2001, dated 2006).

Molecules are shown by their SMILES.

The target of assay [1] is T1, melanocortin MC-4 receptor (Homo sapiens, UniProt P32245).
T1 construct: purchased Receptor Biology Inc
In words: Melanocortin MC-4 Receptor Binding Assay (SPA). In a few lines: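 Membranes bound to WGA SPA beads were incubated 16 h at 25° C with 40 pM ¹²⁵I-NDP-MSH and test compound (1 mM stock in 30% DMSO-HEPES pH 7.4). Nonspecific binding set with 1 μM NDP-MSH or α-MSH; percent inhibition from bound cpm.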

Assay [2] deals with human sebocytes. Nature of the assay: Nile red evaluation of lipid accumulation in sebocytes. The settings on record: for inhibition at 0.4 µM: read-out: % Inh 0.4 μM (lipid accumulation, Nile red); for inhibition at 0.8 µM: read-out: % Inh 0.8 μM (lipid accumulation, Nile red). It counts as cell-based. Here is the method:
The cells were incubated at 37° C. for 24 hours prior to their use as a feeder layer for sebocytes. Human sebocytes were isolated from Dermatome shavings of postoperative pieces of human skin at 0.4-0.8 mm depths (this part of the skin was previously shown to be enriched in sebaceous glands). […] This medium was changed every 3 days (Phase III). Hormones, mixture of hormones i.e. bovine pituitary extract or compounds to be tested were added to the culture at the beginning of phase III. […] The evaluation of lipid accumulation completed using the Nile red method. This method relies on visualization of neutral lipids by Nile red and quantitation by reading of fluorescence at 535 nm excitation, 580 nm emission using a plate reader. The lipid synthesis was evaluated by radioactive labeling using ^14C acetate and quantified by Bio Rad Phosphoimager (Molecular Imager, FX) using 4.1 Software. […] Quantitation of accumulation/inhibition of neutral lipids in sebocytes was accomplished by Nile red binding assay. Briefly, following exposure of sebocytes to test compounds, the cells were allowed to interact with 1 μM Nile red in Hanks buffered saline solution containing DMSO and Pluronic F127. After 4 hours of incubation, washing and incubation overnight, the fluorescence was read at 535 excitation and 580 emission using a fluorescence plate reader. […] Following the procedure described above, select compounds of the present invention were tested for visual and Nile red evaluation of lipid accumulation, with results as listed in Table 9.

Assay [3] has as its system human sebocytes. In words: Visual observation of lipid granule formation in sebocytes. It counts as cell-based. As for the experimental part: Semiconfluent cultures of 3T3 mouse fibroblasts (Swiss Albino mouse, ATCC CCL-92) were treated with mitomycin C (4 μg/ml) for 3 hours, trypsinized and seeded at a density of 2.5×10^5/9.5 cm^2 tissue culture plate in Dulbeccos Minimal Essential Medium (DMEM) containing 10% Colorado Calf Serum, PNC (100U/ml), STM (100 μg/ml), L glutamine (0.3 mg/ml), sodium pyruvate (1 mM) and nonessential amino acids (100 μM). The cells were incubated at 37° C. for 24 hours prior to their use as a feeder layer for sebocytes.
Human sebocytes were isolated from Dermatome shavings of postoperative pieces of human skin at 0.4–0.8 mm depths (this part of the skin was previously shown to be enriched in sebaceous glands). Shavings so obtained were treated with 1% Dispase in Iscoves medium containing 10% serum for 20 min at 37° C. The tissue was then placed in 0.3% trypsin/1% EDTA in Phosphate Buffered Saline (PBS) for 10 minutes at 37° C. Following this incubation the cells were gently scraped from the tissue in Growth medium (GM) containing DMEM/F12 media mixture (3:1), supplemented with 8% heat inactivated FBS, 2% heat inactivated human serum (HS), 1 mM sodium pyruvate, epidermal growth factor (10 ng/ml), insulin (10 μg/ml), hydrocortisone (0.4 μg/ml) and +/−cholera toxin (100 μg/ml), L-glutamine and antibiotics. Cells so obtained were filtered through nylon mesh ([…]), centrifuged at 750 RPM, re-suspended in GM and counted.
Resultant cells from the above isolation procedure were plated on the 3T3 feeder layers at 2×10^5/9.5 cm^2 in growth medium and maintained at 37° C. and 5% CO2 for 3 days (Phase I). Following the initial growth period they were transferred to a transition medium (TM) that consisted of DMEM/F12 media supplemented with 1 mM sodium pyruvate, insulin ([…]), transferrin ([…]) and selenium (5.5 μg/ml) (ITS), 2% heat inactivated FBS and 2% heat inactivated human serum as well as +/−cholera toxin (ch.t.) (100 μg/ml), L-glutamine and antibiotics (Phase II). Three days later the cells were changed to differentiation medium (DM), DMEM/F12 supplemented with ITS, 3,3′,5-triido-L-thyronine sodium (3 nM), 1%(v/v) trace element mix and the choice of differentiation agent i.e. bovine pituitary extract (10 μg/ml). This medium was changed every 3 days (Phase III).
Hormones, mixture of hormones i.e. bovine pituitary extract or compounds to be tested were added to the culture at the beginning of phase III. Two criteria were used to evaluate the effect of these materials on sebaceous cultures: 1) visual observations and 2) evaluation of sebaceous lipid accumulation and synthesis. The evaluation of lipid accumulation completed using the Nile red method. This method relies on visualization of neutral lipids by Nile red and quantitation by reading of fluorescence at 535 nm excitation, 580 nm emission using a plate reader. The lipid synthesis was evaluated by radioactive labeling using ^14C acetate and quantified by Bio Rad Phosphoimager (Molecular Imager, FX) using 4.1 Software.
Quantitation of accumulation/inhibition of neutral lipids in sebocytes was accomplished by Nile red binding assay. Briefly, following exposure of sebocytes to test compounds, the cells were allowed to interact with 1 μM Nile red in Hanks buffered saline solution containing DMSO and Pluronic F127. After 4 hours of incubation, washing and incubation overnight, the fluorescence was read at 535 excitation and 580 emission using a fluorescence plate reader.
Following the procedure described above, select compounds of the present invention were tested for visual and Nile red evaluation of lipid accumulation, with results as listed in Table 9.
Following the procedure described above, select compounds of the present invention were tested for their inhibitory effect on differentiation of human sebocytes. […]

A further assay addresses MC5-R (Homo sapiens, UniProt P33032). Nature of the assay: MC5-R binding.

As usually defined, the IC50 is the concentration at which inhibition is half-maximal. Higher therefore signals a need for much substance.

Chain of MC5-R (P33032 whole entry): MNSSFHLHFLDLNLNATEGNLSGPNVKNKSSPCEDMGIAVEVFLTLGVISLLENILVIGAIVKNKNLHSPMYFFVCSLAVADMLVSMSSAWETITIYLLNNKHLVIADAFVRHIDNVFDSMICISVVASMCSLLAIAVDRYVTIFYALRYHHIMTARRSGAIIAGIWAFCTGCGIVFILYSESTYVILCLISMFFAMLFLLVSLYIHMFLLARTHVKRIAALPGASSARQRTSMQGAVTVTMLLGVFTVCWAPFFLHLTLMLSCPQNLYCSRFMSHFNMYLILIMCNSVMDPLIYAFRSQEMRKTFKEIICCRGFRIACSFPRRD
T1 sequence (P32245 whole entry): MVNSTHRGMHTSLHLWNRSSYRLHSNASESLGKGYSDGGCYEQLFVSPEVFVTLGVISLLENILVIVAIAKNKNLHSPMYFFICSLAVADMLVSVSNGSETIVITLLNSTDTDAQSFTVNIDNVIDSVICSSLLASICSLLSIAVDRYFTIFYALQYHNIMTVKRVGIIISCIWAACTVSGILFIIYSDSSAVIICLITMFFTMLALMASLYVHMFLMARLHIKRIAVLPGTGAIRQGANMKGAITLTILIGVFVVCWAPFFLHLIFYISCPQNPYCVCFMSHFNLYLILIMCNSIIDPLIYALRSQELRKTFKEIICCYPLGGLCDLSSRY

Consider `COc1ccccc1-[n+]1sc(Nc2ccc(C)cc2)nc1-c1ccccc1.[Br-]` [Compound 31, 2-(2-methoxyphenyl)-3-phenyl-5-p-tolylamino-[1,2,4]thiadiazol-2-ium], for which the 50% inhibitory concentration (IC50) in assay [1] is 22 nM.

As to `COc1ccc(N(C)c2nc(-c3ccccc3)[n+](-c3ccc(C)cc3)s2)cc1` [Compound 50], in assay [1], the half-maximal inhibitory concentration (IC50) came out at 30000 nM. Further, in the assay on human sebocytes [2], the inhibition at 0.4 µM worked out at 0% and the inhibition at 0.8 µM is 0%. Moreover, in the assay with human sebocytes [3], the “Visual* 0.4 μM (inhibition of lipid granule formation)” value turned out to be 0 and the “Visual* 0.8 μM (inhibition of lipid granule formation)” value was determined as 0. Further, the “MC5-R IC50” value at MC5-R is “No binding”.

For `COc1ccccc1-c1nc(Nc2ccccc2)s[n+]1-c1ccccc1OC.[Br-]` [Compound 74, 2-(2-methoxyphenyl)-3-(2-methoxyphenyl)-5-phenylamino-[1,2.4]thiadiazol-2-ium], the IC50 in assay [1] is 194 nM. In the assay on human sebocytes [2], the inhibition at 0.4 µM turned out to be 72% and the inhibition at 0.8 µM worked out at 100%. Further, in the assay on human sebocytes [3], the “Visual* 0.4 μM (inhibition of lipid granule formation)” value was “+++ (+++ = 75%)” and the “Visual* 0.8 μM (inhibition of lipid granule formation)” value was “++++ (++++ = 100%)”. Also, the “lipid granules in sebocyte cultures (visual, stained cultures)” value in the assay with human sebocytes [3] (seven day treatment) was “complete disappearance of lipid granules”. The IC50 on MC5-R is 154 nM.

Take `c1ccc(CNc2nc(-c3ccccc3)[n+](-c3ccccc3)s2)cc1` [Compound 84]: in the assay on human sebocytes [2], the inhibition at 0.4 µM was found to be 0% and the inhibition at 0.8 µM stood at 0%. Also, in the assay with human sebocytes [3], the “Visual* 0.4 μM (inhibition of lipid granule formation)” value amounted to 0 and the “Visual* 0.8 μM (inhibition of lipid granule formation)” value turned out to be 0. Besides, the “MC5-R IC50” value on MC5-R is on record as “No binding”.
